The values that follow come from patent US20170267560A1, “TABLETS FOR TREATING AND DISINFECTING WATER” (ERCROS, S.A., priority 2014, published 2017).

This series in a line: Thermogravimetric analysis of the quantity of additive encapsulated in microporous or mesoporous material. As to conditions: for % Encapsulated (g additive/g solid total) × 100: encapsulated in silica by impregnation (Example 1).
Where [1] appears, read: MIL-53 MOF, two steps, 60° C., encapsulation time 1 day.
Setting [2] is: MIL-53 MOF, two steps, 60° C., encapsulation time 2 days.
Setting [3] is: MIL-53 MOF, two steps, 60° C., encapsulation time 4 days.
Where [4] appears, read: MIL-53 MOF, two steps, 60° C., encapsulation time 7 days.
Setting [5] is: MIL-88 A (Al) MOF, in-situ encapsulation in one single step (Example 4).
[6] abbreviates: MIL-88 A (Al) MOF, two steps, encapsulation time 3 days.

In the case of `CC(C)=CCCC(C)CC(=O)O` (stereo not shown) [Citronellic acid, citronellic acid], the “% Encapsulated (g additive/g solid total) × 100” value turned out to be 56.9%. For the same compound, the “% Encapsulated (g additive/g dry solid) × 100” value under setting [1] came to 19.2%. In addition, under setting [2], the “% Encapsulated (g additive/g dry solid) × 100” value was found to be 22.5%. Moreover, under setting [3], the “% Encapsulated (g additive/g dry solid) × 100” value is reported as 25%. Further, the “% Encapsulated (g additive/g dry solid) × 100” value under setting [4] came to 25.1%. In addition, the “% Encapsulated (g additive/g dry solid) × 100” value under setting [5] was 12.2%. In addition, the “% Encapsulated (g additive/g dry solid) × 100” value under setting [6] was 8.9%.
As for `CC(C)=CCC/C(C)=C/C(=O)O` [Geranic acid, geranic acid], the “% Encapsulated (g additive/g solid total) × 100” value is listed as 55.7%. Further, under setting [1], the “% Encapsulated (g additive/g dry solid) × 100” value turned out to be 17.2%. The “% Encapsulated (g additive/g dry solid) × 100” value under setting [2] is recorded as 33.4%. In addition, under setting [3], the “% Encapsulated (g additive/g dry solid) × 100” value turned out to be 35.3%. Moreover, the “% Encapsulated (g additive/g dry solid) × 100” value under setting [4] was found to be 44.0%. The “% Encapsulated (g additive/g dry solid) × 100” value under setting [5] worked out at 13.4%. For the same compound, the “% Encapsulated (g additive/g dry solid) × 100” value under setting [6] is reported as 10.6%.
As to `CC(C)=CCC/C(C)=C/CO` [Geraniol, geraniol], the “% Encapsulated (g additive/g solid total) × 100” value was 55.0%. Moreover, the “% Encapsulated (g additive/g dry solid) × 100” value under setting [1] worked out at 22.1%. Moreover, the “% Encapsulated (g additive/g dry solid) × 100” value under setting [2] turned out to be 32.0%. Moreover, the “% Encapsulated (g additive/g dry solid) × 100” value under setting [3] amounted to 29.1%. For the same compound, the “% Encapsulated (g additive/g dry solid) × 100” value under setting [4] came out at 36.7%. Also, under setting [5], the “% Encapsulated (g additive/g dry solid) × 100” value is reported as 10.9%. For the same compound, the “% Encapsulated (g additive/g dry solid) × 100” value under setting [6] is listed as 11.3%.
Take `CCCCN(CCC(=O)OCC)C(C)=O` [IR3535, ethyl 3-[acetyl(butyl)amino]propanoate]: the “% Encapsulated (g additive/g solid total) × 100” value is 58.7%. For the same compound, the “% Encapsulated (g additive/g dry solid) × 100” value under setting [1] worked out at 26.0%. For the same compound, the “% Encapsulated (g additive/g dry solid) × 100” value under setting [2] is 22.1%. In addition, the “% Encapsulated (g additive/g dry solid) × 100” value under setting [3] is 26.1%. The “% Encapsulated (g additive/g dry solid) × 100” value under setting [4] is 25.2%. For the same compound, the “% Encapsulated (g additive/g dry solid) × 100” value under setting [5] is 21.7%. The “% Encapsulated (g additive/g dry solid) × 100” value under setting [6] is 21.0%.
